The experiment concerns the target PIK3CG (UniProt P48736). Nature of the experiment: Inhibition of PIK3CG Kinase Activity.

PIK3CG, sequence (P48736 whole entry, looked up): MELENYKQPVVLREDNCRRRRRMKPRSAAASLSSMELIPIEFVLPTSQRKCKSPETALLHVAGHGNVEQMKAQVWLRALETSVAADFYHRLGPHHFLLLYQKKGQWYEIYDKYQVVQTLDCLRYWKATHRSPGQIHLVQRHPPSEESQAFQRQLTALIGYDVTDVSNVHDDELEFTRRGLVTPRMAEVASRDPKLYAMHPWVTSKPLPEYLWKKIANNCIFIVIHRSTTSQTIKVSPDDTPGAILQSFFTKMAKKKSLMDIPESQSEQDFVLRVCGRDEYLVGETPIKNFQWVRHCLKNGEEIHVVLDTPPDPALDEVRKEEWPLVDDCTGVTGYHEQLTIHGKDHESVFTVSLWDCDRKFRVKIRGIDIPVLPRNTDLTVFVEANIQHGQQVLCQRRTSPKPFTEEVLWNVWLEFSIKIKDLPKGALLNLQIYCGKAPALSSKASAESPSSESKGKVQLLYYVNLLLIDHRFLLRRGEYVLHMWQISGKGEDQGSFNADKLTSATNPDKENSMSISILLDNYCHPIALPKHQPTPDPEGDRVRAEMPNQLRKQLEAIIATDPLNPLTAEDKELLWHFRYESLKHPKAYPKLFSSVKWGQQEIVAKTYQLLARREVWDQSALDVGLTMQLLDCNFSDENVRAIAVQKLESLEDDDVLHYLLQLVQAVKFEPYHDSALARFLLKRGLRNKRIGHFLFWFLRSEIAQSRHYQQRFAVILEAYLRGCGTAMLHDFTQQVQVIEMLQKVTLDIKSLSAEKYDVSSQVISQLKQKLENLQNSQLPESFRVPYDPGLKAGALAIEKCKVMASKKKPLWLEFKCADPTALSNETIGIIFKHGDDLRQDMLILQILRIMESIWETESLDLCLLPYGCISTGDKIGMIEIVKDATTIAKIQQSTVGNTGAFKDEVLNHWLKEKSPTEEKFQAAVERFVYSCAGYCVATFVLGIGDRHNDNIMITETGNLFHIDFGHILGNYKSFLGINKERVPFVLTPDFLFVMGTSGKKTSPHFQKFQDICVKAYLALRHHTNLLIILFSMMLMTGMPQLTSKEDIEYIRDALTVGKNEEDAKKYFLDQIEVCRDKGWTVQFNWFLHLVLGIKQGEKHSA

By IC50 is commonly meant the concentration that gives 50% inhibition. A higher IC50 goes with weaker potency. `Cc1oc(C(C)(C)C)cc1C(=O)N1CCCOc2ccc(/C=C3\SC(=S)NC3=O)cc21` yielded an IC50 of 4600 nM. In turn, `CC1(C)C2CCC1(CS(=O)(=O)N1CCOc3ccc(/C=C4\SC(=S)NC4=O)cc31)CC2` gave an IC50 of 330 nM. Compound `O=C1NC(=S)S/C1=C\c1ccc2c(c1)N(C(=O)c1ccc3c(c1)C(=O)c1ccccc1C3=O)CCCO2` had an IC50 of 4990 nM. In turn, `O=C1NC(=S)S/C1=C\c1ccc2c(c1)N(C(=O)C1CCCC1)CCCO2` displayed an IC50 of 1000 nM. In turn, `Cc1cc(C)cc(CN2CCOc3ccc(/C=C4\SC(=S)NC4=O)cc32)c1` registered an IC50 of 650 nM.

For the compound `Cc1ccc(NC(=O)N2CCCOc3ccc(/C=C4\SC(=S)NC4=O)cc32)cc1`, the IC50 worked out at 3500 nM. The compound `O=C1NC(=S)S/C1=C\c1ccc2c(c1)N(C(=O)c1ccc(Cl)c(Cl)c1)CCCO2` gave an IC50 of 1380 nM. As for `O=C1NC(=S)S/C1=C\c1ccc2c(c1)N(C(=O)Cc1cccs1)CCCO2`, the IC50 was determined as 1140 nM. For the compound `O=C1NC(=S)S/C1=C\c1ccc2c(c1)N(C(=O)c1ccco1)CCO2`, the IC50 was 65 nM. In turn, `O=C1NC(=S)S/C1=C\c1ccc2c(c1)N(C(=O)/C=C/c1ccccc1)CCCO2` displayed an IC50 of 1520 nM. Then `CCCCCCc1ccc(C(=O)N2CCCOc3ccc(/C=C4\SC(=S)NC4=O)cc32)cc1`, with 4200 nM. Then `O=C1NC(=S)S/C1=C\c1ccc2c(c1)N(C(=O)COCc1ccccc1)CCCO2`, with 1650 nM; and `CN1CCN(Cc2ccccc2C(=O)N2CCOc3ccc(/C=C4\SC(=S)NC4=O)cc32)CC1`, with 115 nM. Turning to `COc1cc(NC(=O)N2CCCOc3ccc(/C=C4\SC(=S)NC4=O)cc32)cc(OC)c1`, the IC50 came out at 1320 nM. The figure for `CC(=O)Oc1ccc(OC(=O)N2CCCOc3ccc(/C=C4\SC(=S)NC4=O)cc32)cc1` is 640 nM. Compound `O=C1NC(=S)S/C1=C\c1ccc2c(c1)N(C(=O)C1CC1)CCCO2` showed an IC50 of 115 nM. `N#Cc1ccc(C(=O)N2CCCOc3ccc(/C=C4\SC(=S)NC4=O)cc32)cc1` yielded an IC50 of 2610 nM. The figure for `O=C1NC(=S)S/C1=C\c1ccc2c(c1)N(C(=O)Oc1ccccc1)CCCO2` is 424 nM. In turn, `O=C1NC(=S)S/C1=C\c1ccc2c(c1)N(C(=O)/C=C/c1cccc(C(F)(F)F)c1)CCCO2` gave an IC50 of 4010 nM. The figure for `Cc1ccc(OC(=O)N2CCCOc3ccc(/C=C4\SC(=S)NC4=O)cc32)cc1` is 704 nM. `O=C1NC(=S)S/C1=C\c1ccc2c(c1)N(C(=O)c1ccc3occc3c1)CCCO2` showed an IC50 of 1530 nM. As to `COc1cc(NC(=O)N2CCOc3ccc(/C=C4\SC(=S)NC4=O)cc32)cc(OC)c1`, the IC50 stood at 14 nM.

The values are drawn from the Kinase Knowledgebase extract (Sharma et al. 2016).
